Read-outs that look alike come from different tables or passages of the source.
Experiments:
[1] = system: IKZF1, ASS1 and SALL4 recruitment to CRBN; assay: Recruitment assessment: recruitment of any tested substrate from among IKZF1, ASS1 and SALL4; type: cell-based; details: any tested substrate at any tested compound concentration
[2] = molecular target: CRBN (Homo sapiens, UniProt Q96SW2); assay: Competition Assay (MAPPIT-like, competition with trimethoprim-lenalidomide hybrid ligand for binding to CRBN in cells)
[3] = molecular target: T1, IKZF1 (isoform 7) recruitment to CRBN (Homo sapiens, UniProt Q96SW2); assay: Recruitment Assay (MAPPIT-like): IKZF1 recruitment to CRBN; type: cell-based; details: HEK293T cells; pSEL-CRBN+pMG1-IKZF1(isoform 7); luciferase 24 hours after treatment; read-out: EC50_IKZF1
T1 construct: Full size proteins were fused for each of the target proteins tested, except in the case of IKZF1 where isoform 7 was used; expressed in transfected cells; host or cells: HEK293T
Protocol: (§1) In this experimental set-up, cells were transfected with a construct encoding a CRBN-fusion protein and another one encoding a substrate-fusion protein. Test compound activity was assessed with increasing concentrations of test compounds (dose-response studies) to monitor the ability to promote CRBN-ligand-induced protein interaction.
(§2) Full size proteins were fused for each of the target proteins tested, except in the case of IKZF1 where isoform 7 was used. For the study, the following were used: IKZF1 recruitment: pSEL-CRBN+pMG1-IKZF1(isoform 7); ASS1 recruitment: pSEL-CRBN+pMG1-ASS1. SALL4 recruitment: pSEL-SALL4+pMG1-CRBN. […] Luciferase activity was measured 24 hours after test compound treatment using the Luciferase Assay System kit (PROMEGA, Madison, Wis.) with an Ensight plate reader (PERKIN ELMER LIFE SCIENCES, Waltham, Mass.). Data points depicted fold induction of the average luciferase activity of triplicate samples from EPO+test compound treated cells versus EPO only treated cells. Error bars represent standard deviations. Curves were fit using 4-parameter nonlinear regression in […] PRISM software.

[4] = molecular target: T2, ASS1 recruitment to CRBN (Homo sapiens, UniProt Q96SW2); assay: Recruitment Assay (MAPPIT-like): ASS1 recruitment to CRBN; type: cell-based; details: HEK293T cells; pSEL-CRBN+pMG1-ASS1; luciferase 24 hours after treatment; read-out: EC50_ASS1
T2 construct: Full size proteins were fused for each of the target proteins tested, except in the case of IKZF1 where isoform 7 was used; expressed in transfected cells; host or cells: HEK293T
Protocol: as §1, §2

[5] = molecular target: T3, SALL4 recruitment to CRBN (Homo sapiens, UniProt Q96SW2); assay: Recruitment Assay (MAPPIT-like): SALL4 recruitment to CRBN; type: cell-based; details: HEK293T cells; pSEL-SALL4+pMG1-CRBN; luciferase 24 hours after treatment; read-out: EC50_SALL4
T3 construct: Full size proteins were fused for each of the target proteins tested, except in the case of IKZF1 where isoform 7 was used; expressed in transfected cells; host or cells: HEK293T
Protocol: as §1, §2

[6] = read-out: IC50 Competition, HEK293T cells, competition with 300 nM trimethoprim-lenalidomide hybrid ligand, luciferase 24 hours after compound treatment

| SMILES | Recruitment Assessment [1] | IC50 [2, 6] [nM] | EC50 [3] [nM] | EC50 [4] [nM] | EC50 [5] [nM] | IC50 [2] [nM] |
| --- | --- | --- | --- | --- | --- | --- |
| Cc1ccc2c(c1)C(=O)N(c1c(C(C)C)cccc1C(C)C)C2=O [5HPP-33, 2-(2,6-diisopropylphenyl)-5-methyl-isoindoline-1,3-dione, reference compound] | FALSE | 5110 |  |  |  |  |
| Cc1cccc2nnn(C3CCC(=O)NC3=O)c(=O)c12 (centres unmarked) [C13247, 3-(5-methyl-4-oxo-1,2,3-benzotriazin-3-yl)piperidine-2,6-dione] | TRUE |  | 2880 | 8550 | 402 |  |
| O=C1CCC(n2nnc3ccccc3c2=O)C(=O)N1 (centres unmarked) [C21223, 3-(4-oxo-1,2,3-benzotriazin-3-yl)piperidine-2,6-dione] | TRUE |  |  |  | 517 | 2240 |
| O=C1CCC(N2Cc3c(Cl)cccc3C2=O)C(=O)N1 (centres unmarked) [C24031, 3-(4-chloro-1-oxo-isoindolin-2-yl)piperidine-2,6-dione] | TRUE |  | 58.7 | 259 | < 13.7 |  |
| O=C1CCC(N2C(=O)C3CCCCC3C2=O)C(=O)N1 (centres unmarked) [C24191, 2-(2,6-dioxo-3-piperidyl)-3a,4,5,6,7,7a-hexahydroisoindole-1,3-dione] | FALSE | 17700 |  |  |  |  |
| Cc1cccc2c1CN(C1CCC(=O)NC1=O)C2=O (centres unmarked) [C28558, 3-(4-methyl-1-oxo-isoindolin-2-yl)piperidine-2,6-dione] | TRUE |  | 77.4 | 368 | < 13.7 |  |
| Cc1ccc2c(c1)CN(C1CCC(=O)NC1=O)C2=O (centres unmarked) [C28577, 3-(5-methyl-1-oxo-isoindolin-2-yl)piperidine-2,6-dione] | TRUE |  | 1610 | 653 | < 13.7 |  |
| O=C1CCC(N2Cc3cc(NCCNC(=O)Nc4ccccc4)ccc3C2=O)C(=O)N1 (centres unmarked) [C35751, 1-[2-[[2-(2,6-dioxo-3-piperidyl)-1-oxo-isoindolin-5-yl]amino]ethyl]-3-phenyl-urea] | TRUE |  |  | 1450 | 232 |  |
| O=C1CCC(N2Cc3cc(NCC(=O)Nc4ccccc4)ccc3C2=O)C(=O)N1 (centres unmarked) [C35797, 2-[[2-(2,6-dioxo-3-piperidyl)-1-oxo-isoindolin-5-yl]amino]-N-phenyl-acetamide] | TRUE |  | 1330 |  | 1080 |  |
| Cc1cccc2c(=O)n(C3CCC(=O)NC3=O)nnc12 (centres unmarked) [C35830, 3-(8-methyl-4-oxo-1,2,3-benzotriazin-3-yl)piperidine-2,6-dione] | TRUE |  |  | 5560 | 588 |  |
| O=C(CNc1ccc2c(c1)CN(C1CCC(=O)NC1=O)C2=O)NCc1ccccc1 (centres unmarked) [C35856] | TRUE |  | 1150 |  | 188 |  |
| N#CC1c2ccccc2C(=O)N1C1CCC(=O)NC1=O (centres unmarked) [C39453, 2-(2,6-dioxo-3-piperidyl)-3-oxo-isoindoline-1-carbonitrile] | TRUE |  | 17100 |  | 875 |  |
| N#Cc1ccc2c(c1)C(=O)N(C1CCC(=O)NC1=O)C2 (centres unmarked) [C48007, 2-(2,6-dioxo-3-piperidyl)-3-oxo-isoindoline-5-carbonitrile] | TRUE |  | 1620 |  | 430 |  |
| O=C1CCC(N2Cc3c(cccc3-c3ccccc3)C2=O)C(=O)N1 (centres unmarked) [C48014, 3-(1-oxo-4-phenyl-isoindolin-2-yl)piperidine-2,6-dione] | TRUE |  | 1240 | 921 | 62.1 |  |
| CC1c2ccccc2C(=O)N1C1CCC(=O)NC1=O (centres unmarked) [C51383, 3-(1-methyl-3-oxo-isoindolin-2-yl)piperidine-2,6-dione] | TRUE |  | 1520 | 1700 | 59.3 |  |
| Nc1cccc2nnn(C3CCC(=O)NC3=O)c(=O)c12 (centres unmarked) [C59904, 3-(5-amino-4-oxo-1,2,3-benzotriazin-3-yl)piperidine-2,6-dione] | TRUE |  | 122 | 687 | 330 |  |
| O=C1CCC(N2Cc3c(ccc4c3OCO4)C2=O)C(=O)N1 (centres unmarked) [C67858, 3-(6-oxo-8H-[1,3]dioxolo[4,5-e]isoindol-7-yl)piperidine-2,6-dione] | TRUE |  | 569 | 884 | 29.3 |  |
| O=C1CC/C(=C/c2ccccc2)C(=O)N1 [C68121, (3Z)-3-benzylidenepiperidine-2,6-dione] | FALSE | 6500 |  |  |  |  |
| O=C1CCC(N2Cc3cc(Nc4ncccn4)ccc3C2=O)C(=O)N1 (centres unmarked) [C80369, 3-[1-oxo-5-(pyrimidin-2-ylamino)isoindolin-2-yl]piperidine-2,6-dione] | TRUE |  |  | 1290 |  |  |
| N#Cc1ccc(Nc2ccc3c(c2)CN(C2CCC(=O)NC2=O)C3=O)nn1 (centres unmarked) [C80378, 6-[[2-(2,6-dioxo-3-piperidyl)-1-oxo-isoindolin-5-yl]amino] pyridazine-3-carbonitrile] | TRUE |  |  | 9420 | 387 |  |
| O=C1CCC(N2Cc3cc(Nc4ncc5c(n4)COC5)ccc3C2=O)C(=O)N1 (centres unmarked) [C80380, 3-[5-(5,7-dihydrofuro[3,4-d]pyrimidin-2-ylamino)-1-oxo-isoindolin-2-yl]piperidine-2,6-dione] | TRUE |  | 1780 |  | 9.89 |  |
| O=C1CCC(N2Cc3ccc(NCC(=O)Nc4ccccc4)cc3C2=O)C(=O)N1 (centres unmarked) [C84965, 2-[[2-(2,6-dioxo-3-piperidyl)-3-oxo-isoindolin-5-yl]amino]-N-phenyl-acetamide] | TRUE | 199 |  |  |  |  |
| O=C1CCC(Nc2ncc3ccccc3n2)C(=O)N1 (centres unmarked) [C97402, 3-(quinazolin-2-ylamino)piperidine-2,6-dione] | FALSE | 6320 |  |  |  |  |
| CN(C)c1ccc2c(c1)CN(C1CCC(=O)NC1=O)C2=O (centres unmarked) [C98103, 3-[5-(dimethylamino)-1-oxo-isoindolin-2-yl]piperidine-2,6-dione] | TRUE |  | 1290 |  | < 13.7 |  |
| Cc1ccc(NC(=O)NCc2ccc3c(c2)CN(C2CCC(=O)NC2=O)C3=O)cc1Cl (centres unmarked) [CC-885, 1-(3-chloro-4-methyl-phenyl)-3-[[2-(2,6-dioxo-3-piperidyl)-1-oxo-isoindolin-5-yl]methyl]urea, reference compound] | TRUE |  | < 13.7 | 80.1 |  |  |
| O=C(O)CN1CCN(Cc2ccc(COc3cccc4c3CN(C3CCC(=O)NC3=O)C4=O)cc2)CC1.O=CO (centres unmarked) [ZE26-0001, 2-[4-[[4-[[2-(2,6-dioxo-3-piperidyl)-1-oxo-isoindolin-4-yl]oxymethyl]phenyl]methyl]piperazin-1-yl]acetic acid; formic acid] | TRUE |  | 4680 |  | 801 |  |

Source: patent US20230111853A1, “COMPOUNDS MODULATING PROTEIN RECRUITMENT AND/OR DEGRADATION” (Orionis Biosciences, Inc., priority 2019, published 2023)
